Non-standard residues stand in square brackets, D forms with d. *: point of attachment. Nle = CCCC[C@H](N)C(=O)O; Cbz = O=C(OCc1ccccc1)*; CH2F = FC*
What was measured:
apoptosis = conditions: cited from earlier work
[1] = test system: transcripts of FOS, IL1B, IL8 and TP53; test: Transcript level stabilisation in blood samples, real time RT-PCR monoplex assays; type: cell-based; conditions: EDTA blood, 2% (w/v) N-methylacetamide, one and three days at RT
18S ribosomal DNA = test: Stabilization of extracellular nucleic acid population in whole blood, 18S rDNA qPCR (66 bp and 500 bp amplicon); type: cell-based, human; conditions: 7.2 mg/ml K2 EDTA, 3 and 6 days RT
Method: Blood obtained from donors was collected into 10 ml K2 EDTA tubes (BD). 4.5 ml of the respectively collected blood was mixed with 0.9 ml of different stabilization solutions (see below examples on the details of the tested stabilization solutions).
All stabilized blood samples were set up in triplicates per condition and test time point. At time point 0 (reference), immediately after mixing the stabilization solution and blood, plasma was generated and the circulating extracellular DNA was extracted. The residual stabilized blood sample was stored for three days and six days at room temperature.
As a reference control, the EDTA stabilized blood sample (collected in K2 EDTA tubes without further additives) was also stored for 3 and 6 days. […] DMAA stabilized samples as tested herein always included additionally a caspase inhibitor. No DMAA containing stabilizing solutions without caspase inhibitor were tested in the subsequent examples.
Plasma was generated from the stabilized and unstabilized (EDTA) blood samples by inverting the blood containing tubes for four times. Then, the tubes were centrifuged for 10 minutes at 1900×g at 4° C. 2.5 ml of the plasma fraction was transferred into a fresh 15 ml falcon tube and centrifuged for 10 minutes at 16.000×g at 4° C. 2 ml of the respectively cleared plasma was used for extracellular nucleic acid isolation using the QIAamp circulating nucleic acid kit (QIAGEN) according to the manufacturer's instructions.
The isolated extracellular DNA was analyzed using two different qPCR assays, targeting different fragment lengths of the 18S ribosomal DNA:
Cycle threshholds of the individual samples were translated into amount of gDNA in the eluate, according to a gDNA standard curve. The gDNA amount of the storage time points was compared to the time zero gDNA level from the same donor and is shown as fold increase in the figures. Especially the increase of the 500 bp fragment in the plasma fraction of the blood sample after storage is an indication for a lysis/destruction of white blood cells. Thus, the lower the amount of released 500 bp DNA, the better the performance of the stabilization method.
The figures corresponding to the subsequently described examples show the increase of DNA relative to time point 0 with the different stabilization solutions (fold change) using different amplicon lengths of 18S rRNA gene. Bars indicate the mean of the triplicate samples per condition and test time point.

caspase-3 = molecular target: T1, caspase-3 (Homo sapiens, UniProt P42574); conditions: cited from earlier work
T1 sequence (P42574 29-175 limits assumed): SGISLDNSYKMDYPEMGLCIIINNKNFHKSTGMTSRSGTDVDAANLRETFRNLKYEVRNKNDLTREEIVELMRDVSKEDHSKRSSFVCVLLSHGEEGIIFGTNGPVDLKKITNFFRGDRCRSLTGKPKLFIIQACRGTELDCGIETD
T1 sequence (P42574 176-277 limits assumed): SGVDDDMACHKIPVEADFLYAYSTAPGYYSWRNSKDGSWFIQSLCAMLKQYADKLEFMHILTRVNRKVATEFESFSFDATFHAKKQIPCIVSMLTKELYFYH

caspase-7 = molecular target: T2, caspase-7 (Homo sapiens, UniProt P55210); conditions: cited from earlier work
T2 sequence (P55210 24-198 limits assumed): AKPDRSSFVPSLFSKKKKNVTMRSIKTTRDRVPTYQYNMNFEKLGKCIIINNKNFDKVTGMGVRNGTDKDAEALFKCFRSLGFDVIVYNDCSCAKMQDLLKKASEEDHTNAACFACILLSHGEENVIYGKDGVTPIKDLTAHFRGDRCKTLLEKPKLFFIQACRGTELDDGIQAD
T2 sequence (P55210 207-303 limits assumed): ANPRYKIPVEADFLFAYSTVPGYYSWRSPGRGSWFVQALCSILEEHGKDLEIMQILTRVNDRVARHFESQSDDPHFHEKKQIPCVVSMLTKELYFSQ

red blood cells = test: Hemolysis in stabilized blood samples; type: cell-based; conditions: butanamide 0.5% (w/v) to 3.5% (w/v) in blood mixture
calpain I = molecular target: T3, calpain I (Homo sapiens, UniProt P07384); conditions: cited from earlier work
T3 sequence (P07384 1-714): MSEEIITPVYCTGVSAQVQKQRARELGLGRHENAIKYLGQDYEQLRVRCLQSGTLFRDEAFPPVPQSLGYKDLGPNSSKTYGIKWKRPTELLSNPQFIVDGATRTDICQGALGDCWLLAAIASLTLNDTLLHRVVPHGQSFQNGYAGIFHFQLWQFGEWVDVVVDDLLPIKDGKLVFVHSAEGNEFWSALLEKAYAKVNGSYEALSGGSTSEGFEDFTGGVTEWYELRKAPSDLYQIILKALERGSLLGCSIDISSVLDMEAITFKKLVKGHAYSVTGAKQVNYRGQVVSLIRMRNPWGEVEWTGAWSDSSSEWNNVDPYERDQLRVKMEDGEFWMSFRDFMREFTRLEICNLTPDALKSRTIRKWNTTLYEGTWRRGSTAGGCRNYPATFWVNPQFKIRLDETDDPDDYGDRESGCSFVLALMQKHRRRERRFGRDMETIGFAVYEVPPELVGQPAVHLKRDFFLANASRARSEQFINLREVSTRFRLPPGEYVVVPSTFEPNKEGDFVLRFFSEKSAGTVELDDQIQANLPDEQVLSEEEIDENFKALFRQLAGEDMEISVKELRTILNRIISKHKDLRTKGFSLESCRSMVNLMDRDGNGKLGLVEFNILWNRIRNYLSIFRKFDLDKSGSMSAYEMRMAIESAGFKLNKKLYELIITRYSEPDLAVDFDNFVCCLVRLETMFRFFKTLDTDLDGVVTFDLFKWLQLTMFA
T3 sequence (P04632 1-268 partner): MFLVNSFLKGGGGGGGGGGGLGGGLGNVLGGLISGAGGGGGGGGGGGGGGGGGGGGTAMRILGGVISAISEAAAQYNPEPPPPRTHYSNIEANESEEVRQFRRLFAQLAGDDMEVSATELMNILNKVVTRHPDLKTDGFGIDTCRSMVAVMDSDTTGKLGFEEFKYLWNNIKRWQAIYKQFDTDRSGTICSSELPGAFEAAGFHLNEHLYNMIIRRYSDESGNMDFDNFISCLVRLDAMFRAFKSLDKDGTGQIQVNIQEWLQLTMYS

calpain II = molecular target: T4, calpain II (Homo sapiens, UniProt P17655); conditions: cited from earlier work
T4 sequence (P17655 1-700): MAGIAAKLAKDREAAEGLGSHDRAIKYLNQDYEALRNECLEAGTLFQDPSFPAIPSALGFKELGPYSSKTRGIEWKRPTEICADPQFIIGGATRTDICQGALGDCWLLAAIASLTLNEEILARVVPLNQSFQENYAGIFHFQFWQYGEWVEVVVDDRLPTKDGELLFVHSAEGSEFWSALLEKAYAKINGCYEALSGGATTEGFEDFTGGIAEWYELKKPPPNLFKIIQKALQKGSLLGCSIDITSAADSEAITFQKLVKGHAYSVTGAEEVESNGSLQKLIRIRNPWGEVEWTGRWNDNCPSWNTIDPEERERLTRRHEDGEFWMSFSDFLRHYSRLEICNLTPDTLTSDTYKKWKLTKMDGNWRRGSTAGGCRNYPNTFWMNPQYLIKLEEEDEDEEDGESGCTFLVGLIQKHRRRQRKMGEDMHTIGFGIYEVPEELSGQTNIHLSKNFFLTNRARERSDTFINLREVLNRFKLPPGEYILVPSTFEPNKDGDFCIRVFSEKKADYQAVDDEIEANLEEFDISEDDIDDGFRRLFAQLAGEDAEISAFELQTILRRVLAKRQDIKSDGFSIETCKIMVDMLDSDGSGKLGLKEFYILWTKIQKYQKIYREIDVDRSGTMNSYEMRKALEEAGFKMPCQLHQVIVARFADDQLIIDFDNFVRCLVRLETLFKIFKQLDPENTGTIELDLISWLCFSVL
T4 sequence (P04632 1-268 partner): T3 sequence (P04632 1-268 partner)

cathepsin L = cathepsin L (Homo sapiens, UniProt P07711); conditions: cited from earlier work
cathepsin L, sequence (P07711 114-333, species assumed): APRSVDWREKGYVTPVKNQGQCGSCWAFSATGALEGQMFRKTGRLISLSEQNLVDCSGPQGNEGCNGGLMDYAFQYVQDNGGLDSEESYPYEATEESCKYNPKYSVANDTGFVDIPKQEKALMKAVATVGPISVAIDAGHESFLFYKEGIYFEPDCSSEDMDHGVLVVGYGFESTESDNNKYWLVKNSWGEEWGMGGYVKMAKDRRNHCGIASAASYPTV

white blood cells [2] = test: Microscopic evaluation of blood smears (cell morphology/integrity); type: cell-based; conditions: EDTA blood, final 5% v/v formamide, 0.5× MOPS pH5.5, RT up to three days
white blood cells [3] = test: Flow cytometry analysis of cell integrity; type: cell-based; conditions: EDTA blood mixed with test solution (5% v/v formamide)
Method: FIG. 6: Flow cytometry (FC) analysis of peripheral blood samples of one donor of example 1. Blood was directly drawn into BD EDTA tubes and PreAnalytiX PAXgene Blood RNA Tubes (PAXgene). […] Immediately after collection and treatment of samples, blood aliquots were analysed without incubation (0 h samples), while remaining samples were incubated at RT for one and three days (24 h and 72 h samples) prior to FC analysis. Shown per picture are the size (x-axis=forward scatter) and granularity (y-axis=sideward scatter) of 10,000 events per sample aliquot tested that contain signals of cells, cell debris and particles. The different populations of white blood cells that are distinguishable from each other in FC analysis (L, M, NG) and the cell-free fraction (D) are indicated by circles for the (+) control (EDTA) sample. They are as follows:
Where indicated, cell morphology was investigated by microscopic evaluation of blood smears and cell integrity by flow cytometry (FC).
The results obtained by microscopic analysis were verified by the analysis of cell integrity with flow cytometry. […] However, not all white blood cells may be equally well stabilized during longer stabilization periods. However, intact cells were detected and the detected cell populations are important for certain diagnostic applications which aim e.g. at the analysis of lymphocytes.

[4] = buffer; cited from earlier work
[5] = amide in different concentrations with 1 μM Quinoline-Val-Asp-CH2-OPH (caspase inhibitor)
[6] = amide alone in different concentrations, without caspase inhibitor

Molecule: Quinoline-Val-Asp-CH2-OPH [Q-VD-OPh]
- effectiveness in preventing apoptosis compared with Z-VAD-FMK (apoptosis): even more effective

Molecule: CNC(C)=O [N-methylacetamide]
- stabilization of transcript levels of FOS, IL1B, IL8, TP53 [1]: effective in stabilizing transcript levels for up to three days
- increase in 18S rDNA in plasma (stabilization of extracellular nucleic acid population) (18S ribosomal DNA; [5]): significantly reduced increase in 18S rDNA

Molecule: CC(N)=O [acetamide]
- increase in 18S rDNA in plasma (stabilization of extracellular nucleic acid population) (18S ribosomal DNA; [5]): significantly reduced increase in 18S rDNA

Molecule: COC[C@@H]1CCCN1S(=O)(=O)c1ccc2c(c1)C(=O)C(=O)N2 [Caspase-3/7 Inhibitor I]
- Ki (caspase-3): 60 nM
- Ki (caspase-7): 170 nM

Molecule: CCCC(N)=O [butanamide]
- increase in 18S rDNA in plasma (stabilization of extracellular nucleic acid population) (18S ribosomal DNA; [6]): significantly reduced increase in 18S rDNA
- increase in 18S rDNA in plasma (stabilization of extracellular nucleic acid population) (18S ribosomal DNA; [5]): uniform stabilization results were obtained
- hemolysis of the red blood cells contained in the blood sample (red blood cells): prevents the hemolysis

Molecule: Ac-Leu-Leu-[Nle]-aldehyde
- Ki (calpain I): 190 nM
- Ki (calpain II): 150 nM
- Ki (cathepsin L): 0.5 nM

Molecule: NC=O [formamide]
- white blood cell integrity, microscopy of blood smears (white blood cells [2]): did not act lytic on WBC
- lysis of lymphocytes and monocytes, flow cytometry (white blood cells [3]; RT up to three days): not affected by lysis
- lysis of neutrophilic granulocytes, flow cytometry (white blood cells [3]; longer storage at RT): Some lysis appeared to have occurred
- increase in 18S rDNA in plasma (stabilization of extracellular nucleic acid population) (18S ribosomal DNA; [6]): significantly reduced increase in 18S rDNA
- increase in 18S rDNA in plasma (stabilization of extracellular nucleic acid population) (18S ribosomal DNA; [5]): uniform stabilization results were obtained

Molecule: Cbz-Leu-Leu-Tyr-CH2F [Calpain Inhibitor IV]
- k2 calpain II (calpain II; irreversible inhibitor): 28,900 M-1s-1). Also acts as an inhibitor of cathepsin L (k2 =
- k2 cathepsin L (cathepsin L): 680,000 M-1s-1).

Molecule: CCC(N)=O [propanamide]
- increase in 18S rDNA in plasma (stabilization of extracellular nucleic acid population) (18S ribosomal DNA; [5]): significantly reduced increase in 18S rDNA

Molecule: CNC=O [N-methylformamide]
- increase in 18S rDNA in plasma (stabilization of extracellular nucleic acid population) (18S ribosomal DNA; [5]): significantly reduced increase in 18S rDNA

Molecule: N=c1sc2c(n1CC(=O)c1ccc([N+](=O)[O-])cc1)CCCC2 [Pifithrin-α, p-Nitro]
- t1/2 [4]: biological systems (t1/2 = 8h in neuron culture medium at 37° C).
